Measured values from ChEMBL document CHEMBL5390226, “Synthesis and Staphylococcus aureus biofilm inhibitory activity of indolenine-substituted pyrazole and pyrimido[1,2-b]indazole derivatives” (Bioorg Med Chem, 2023).
Values after ≈ are worked out from the molar mass of the structure shown. Active and inactive are the calls of the source. The rule behind the calls is not given here.

Key:
Staphylococcus aureus [1] = experiment: Antibiofilm activity against methicillin-susceptible Staphylococcus aureus ATCC 29213 assessed as inhibition of biofilm formation incubated for 24 hrs by crystal violet staining based analysis; type: functional; conditions: dose 1.56-100 µg/ml
Staphylococcus aureus [2] = experiment: Antibiofilm activity against methicillin-resistant Staphylococcus aureus ATCC 33591 assessed as biofilm eradication incubated for 24 hrs by crystal violet staining based analysis; type: functional
Staphylococcus aureus [3] = experiment: Antibiofilm activity against methicillin-resistant Staphylococcus aureus ATCC 33591 assessed as inhibition of biofilm formation incubated for 24 hrs by crystal violet staining based analysis; type: functional; conditions: dose 1.56-100 µg/ml
Staphylococcus aureus [4] = experiment: Antibiofilm activity against methicillin-susceptible Staphylococcus aureus ATCC 29213 assessed as biofilm eradication incubated for 24 hrs by crystal violet staining based analysis; type: functional
[5] = Cytotoxicity against human A549 cells assessed as inhibition of cell growth measured after 48 hrs by MTT assay; type: toxicity, cell-based
Staphylococcus aureus [6] = experiment: Antibacterial activity against methicillin-susceptible Staphylococcus aureus ATCC 29213 assessed as bacterial growth inhibition incubated for 24 hrs by CLSI based microbroth dilution method; type: functional
Staphylococcus aureus [7] = experiment: Antibacterial activity against methicillin-resistant Staphylococcus aureus ATCC 33591 assessed as bacterial growth inhibition incubated for 24 hrs by CLSI based microbroth dilution method; type: functional
Staphylococcus aureus [8] = experiment: Antibacterial activity against methicillin-susceptible Staphylococcus aureus ATCC 29213 assessed as planktonic growth inhibition at 25 to 50 ug/mL incubated for 24 hrs; type: functional, organism-based; conditions: dose 25-50 µg/ml
Staphylococcus aureus [9] = experiment: Antibacterial activity against methicillin-resistant Staphylococcus aureus ATCC ATCC 33591 assessed as planktonic growth inhibition at 25 to 50 ug/mL incubated for 24 hrs; type: functional, organism-based; conditions: dose 25-50 µg/ml
Staphylococcus aureus [10] = experiment: Antibacterial activity against methicillin-resistant Staphylococcus aureus ATCC 33591 assessed as MBC to MIC ratio; type: functional
Staphylococcus aureus [11] = experiment: Antibiofilm activity against methicillin-susceptible Staphylococcus aureus ATCC 29213 assessed as disruption of biofilm incubated for 24 hrs by crystal violet staining based inverted microscopic analysis; type: functional, organism-based; conditions: dose 1.56-12.5 µg/ml
Staphylococcus aureus [12] = experiment: Antibiofilm activity against methicillin-resistant Staphylococcus aureus ATCC 33591 assessed as disruption of biofilm incubated for 24 hrs by crystal violet staining based inverted microscopic analysis; type: functional, organism-based; conditions: dose 1.56-12.5 µg/ml

Row | Compound | MBIC50 (Staphylococcus aureus [1]) | MBIC50 (Staphylococcus aureus [3]) | MBEC50 (Staphylococcus aureus [4]) | further results
1 | Cc1ccc(NC(=O)c2ccc(-n3cc(C4=Nc5ccccc5C4(C)C)cn3)cc2)cc1 | >100 µg/mL | – | – | –
2 | CC1(C)C(c2cnc3c4ccccc4nn3c2)=Nc2ccccc21 | >100 µg/mL | 100 µg/mL | 100 µg/mL | MBEC50 (Staphylococcus aureus [2]): >100 µg/mL
3 | CC1(C)C(c2cnn(-c3ccc(C(=O)NCCc4ccccc4)cc3)c2)=Nc2ccccc21 | >100 µg/mL | – | – | –
4 | COc1cccc2nn3cc(C4=Nc5c(ccc6ccccc56)C4(C)C)cnc3c12 | 12.5 µg/mL | – | >100 µg/mL | –
5 | CCOC(=O)c1ccc2c(c1)C(C)(C)C(c1cnc3c4ccc(Br)cc4nn3c1)=N2 | >100 µg/mL | – | >100 µg/mL | –
6 | N=C(NCCCCCCNC(=N)NC(=N)Nc1ccc(Cl)cc1)NC(=N)Nc1ccc(Cl)cc1 [CHLORHEXIDINE] | 3.13 µg/mL | <=1.56 ug ml-1 | 12.5 µg/mL | MBEC50 (Staphylococcus aureus [2]): 3.13 µg/mL
7 | CC1(C)C(c2cnn(-c3ccc(C(=O)Nc4ccc(F)cc4)cc3)c2)=Nc2ccccc21 | >100 µg/mL | – | – | –
8 | CC1(C)C(c2cnn(-c3ccc(C(=O)NCc4cccnc4)cc3)c2)=Nc2ccccc21 | >100 µg/mL | – | – | –
9 | CC1(C)C(c2cnn(-c3ccc(C(=O)O)cc3)c2)=Nc2ccccc21 | 6.25 µg/mL | 50 µg/mL | >100 µg/mL | –
10 | CC1(C)C(c2cnn(-c3ccc(C(=O)Nc4ccc(Cl)cc4)cc3)c2)=Nc2ccccc21 | >100 µg/mL | – | – | –
11 | COc1cccc2nn3cc(C4=Nc5ccc6ccccc6c5C4(C)C)cnc3c12 | >100 µg/mL | – | >100 µg/mL | MBEC50 (Staphylococcus aureus [2]): 100 µg/mL
12 | Cc1ccccc1NC(=O)c1ccc(-n2cc(C3=Nc4ccccc4C3(C)C)cn2)cc1 | >100 µg/mL | – | – | –
13 | CC1(C)C(c2cnn(-c3ccc(C(=O)Nc4ccc(Cl)cc4)cc3)c2)=Nc2ccc3ccccc3c21 | >100 µg/mL | – | – | –
14 | CC1(C)C(c2cnn(-c3ccc(C(=O)NCc4ccc(F)cc4)cc3)c2)=Nc2ccccc21 | >100 µg/mL | – | – | –
15 | CC1(C)C(c2cnn(-c3ccc(C(=O)Nc4ccccc4)cc3)c2)=Nc2ccccc21 | >100 µg/mL | – | – | –
16 | COc1cccc2nn3cc(C4=Nc5ccccc5C4(C)C)cnc3c12 | 50 µg/mL | >100 µg/mL | >100 µg/mL | –
17 | CC1(C)C(c2cnn(-c3ccccc3)c2)=Nc2ccc(C(=O)O)cc21 | 12.5 µg/mL | <=1.56 ug ml-1 | >100 µg/mL | MBEC50 (Staphylococcus aureus [2]): 25 µg/mL; IC50 at 48 h [5]: > 100 µg/mL
18 | COc1ccc(NC(=O)c2ccc(-n3cc(C4=Nc5ccccc5C4(C)C)cn3)cc2)cc1 | >100 µg/mL | – | – | –
19 | CCOC(=O)c1ccc2c(c1)C(C)(C)C(c1cnc3c4ccc(C(F)(F)F)cc4nn3c1)=N2 | 100 µg/mL | – | >100 µg/mL | MBEC50 (Staphylococcus aureus [2]): 100 µg/mL
20 | CC1(C)C(c2cnn(-c3ccc(C(=O)NCCc4ccccc4)cc3)c2)=Nc2ccc3ccccc3c21 | >100 µg/mL | – | – | –
21 | CCOC(=O)c1ccc2c(c1)C(C)(C)C(c1cnc3c4c(OC)cccc4nn3c1)=N2 | >100 µg/mL | 12.5 µg/mL | >100 µg/mL | –
22 | CC1(C)C(c2cnc3c4ccccc4nn3c2)=Nc2ccc3ccccc3c21 | >100 µg/mL | 50 µg/mL | >100 µg/mL | –
23 | CC1(C)C(c2cnc3c4ccc(Br)cc4nn3c2)=Nc2ccc3ccccc3c21 | >100 µg/mL | – | >100 µg/mL | –
24 | CC1(C)C(c2cnc3c4ccccc4nn3c2)=Nc2c1ccc1ccccc21 | 25 µg/mL | 6.25 µg/mL | >100 µg/mL | –

Row | Compound | MBIC50 (Staphylococcus aureus [1]) | MBIC50 (Staphylococcus aureus [3]) | MBEC50 (Staphylococcus aureus [4]) | further results
25 | CC1(C)C(c2cnc3c4ccc(Br)cc4nn3c2)=Nc2ccccc21 | >100 µg/mL | 100 µg/mL | >100 µg/mL | –
26 | COc1ccc2c(c1)C(C)(C)C(c1cnc3c4ccc(C(F)(F)F)cc4nn3c1)=N2 | 100 µg/mL | – | >100 µg/mL | MBEC50 (Staphylococcus aureus [2]): 100 µg/mL
27 | Cc1ccc(CNC(=O)c2ccc(-n3cc(C4=Nc5ccccc5C4(C)C)cn3)cc2)cc1 | >100 µg/mL | – | – | –
28 | CC1(C)C(c2cnn(-c3ccc(C(=O)O)cc3)c2)=Nc2ccc(Cl)cc21 | 6.25 µg/mL | – | 12.5 µg/mL | MBEC50 (Staphylococcus aureus [2]): 50 µg/mL; IC50 at 48 h [5]: > 100 µg/mL
29 | CC1(C)C(c2cnn(-c3ccc(C(=O)NCc4ccccc4)cc3)c2)=Nc2ccccc21 | >100 µg/mL | – | – | –
30 | COc1ccc2c(c1)C(C)(C)C(c1cnc3c4ccccc4nn3c1)=N2 | >100 µg/mL | 50 µg/mL | >100 µg/mL | –
31 | COc1ccc2c(c1)C(C)(C)C(c1cnn(-c3ccc(C(=O)O)cc3)c1)=N2 | 12.5 µg/mL | 100 µg/mL | >100 µg/mL | –
32 | CC1(C)C(c2cnn(-c3ccc(C(=O)Nc4ccncc4)cc3)c2)=Nc2ccc3ccccc3c21 | >100 µg/mL | – | – | –
33 | Oc1cc(Cl)ccc1Oc1ccc(Cl)cc1Cl [TRICLOSAN] | <=1.56 ug ml-1 | <=1.56 ug ml-1 | 3.13 µg/mL | MBEC50 (Staphylococcus aureus [2]): 6.25 µg/mL
34 | CC1(C)C(c2cnc3c4ccc(C(F)(F)F)cc4nn3c2)=Nc2c1ccc1ccccc21 | >100 µg/mL | 100 µg/mL | >100 µg/mL | –
35 | CN(C)c1ccccc1NC(=O)c1ccc(-n2cc(C3=Nc4ccccc4C3(C)C)cn2)cc1 | >100 µg/mL | – | – | –
36 | CCOC(=O)c1ccc2c(c1)C(C)(C)C(c1cnc3c4ccccc4nn3c1)=N2 | >100 µg/mL | 100 µg/mL | >100 µg/mL | –
37 | CC1(C)C(c2cnc3c4ccc(Br)cc4nn3c2)=Nc2c1ccc1ccccc21 | >100 µg/mL | 50 µg/mL | >100 µg/mL | –
38 | CC1(C)C(c2cnn(-c3ccc(C(=O)NC4CCCCC4)cc3)c2)=Nc2ccccc21 | >100 µg/mL | – | – | –
39 | CC1(C)C(c2cnn(-c3ccc(C(=O)NCc4ccc(F)cc4)cc3)c2)=Nc2ccc3ccccc3c21 | >100 µg/mL | – | – | –
40 | COc1ccc2c(c1)C(C)(C)C(c1cnc3c4c(OC)cccc4nn3c1)=N2 | >100 µg/mL | 25 µg/mL | >100 µg/mL | –
41 | CC1(C)C(c2cnn(-c3ccc(C(=O)O)cc3)c2)=Nc2ccc3ccccc3c21 | <=1.56 ug ml-1 | 3.13 µg/mL | 12.5 µg/mL | MBEC50 (Staphylococcus aureus [2]): 6.25 µg/mL; MIC (Staphylococcus aureus [6]): 25 µg/mL (≈ 65.5 µM); MIC (Staphylococcus aureus [7]): 25 µg/mL (≈ 65.5 µM); inhibition (Staphylococcus aureus [8]): Active; inhibition (Staphylococcus aureus [9]): Active; Ratio (Staphylococcus aureus [10]): >4; inhibition (Staphylococcus aureus [1]): Dose-Dependent Effect; inhibition (Staphylococcus aureus [3]): Dose-Dependent Effect; IC50 at 48 h [5]: > 100 µg/mL; Activity (Staphylococcus aureus [11]): Dose-Dependent Effect; Activity (Staphylococcus aureus [12]): Dose-Dependent Effect
42 | CC1(C)C(c2cnc3c4ccc(C(F)(F)F)cc4nn3c2)=Nc2ccccc21 | 100 µg/mL | 12.5 µg/mL | >100 µg/mL | –
43 | CC1(C)C(c2cnn(-c3ccc(C(=O)Nc4ccncc4)cc3)c2)=Nc2ccccc21 | >100 µg/mL | – | – | –
44 | CC1(C)C(c2cnn(-c3ccc(C(=O)Nc4ccc(F)cc4)cc3)c2)=Nc2ccc3ccccc3c21 | >100 µg/mL | – | – | –
45 | COc1ccc2c(c1)C(C)(C)C(c1cnc3c4ccc(Br)cc4nn3c1)=N2 | >100 µg/mL | – | >100 µg/mL | –
46 | CC1(C)C(c2cnc3c4ccc(C(F)(F)F)cc4nn3c2)=Nc2ccc3ccccc3c21 | 50 µg/mL | – | >100 µg/mL | –
47 | CCCCNC(=O)c1ccc(-n2cc(C3=Nc4ccccc4C3(C)C)cn2)cc1 | >100 µg/mL | – | – | –
